System: MT-MMP
Experiment: Thiopeptolide assay of cell-associated gelatinase activity ascribed to MT-MMP in TM cells
Format: cell-based, Rhesus monkey
Conditions: benzathine (as diacetate salt) combined with an equal weight of test compound in the incubation medium
Description: Unless specifically noted, all molecules tested were prepared as stock solutions in dimethyl sulfoxide (DMSO) with a final concentration of 10 mg/ml. The stocks were stored in a dessicator at −20 degrees Celsius. In testing the molecules, the molecules were diluted to final concentrations of 0.3 ug/ml and 15 ug/ml in a simplified culture medium based on Ames' medium, called Concanavalin A (Con A) conditioning medium (CACM). The monkey TM cells were incubated with the test molecules for 48 hours.
Control medium of CACM plus DMSO and a positive control with 5 ug/ml Con A plus DMSO were run in parallel. […]
At the end of the incubation period, by means of a spectrophoto-metric plate reader, the optical density (OD) at 410 nm was determined for each well after automatic subtraction of a blank value for a well containing reaction mixture but without cells. The average OD at the two-hour end point for each test molecule at all concentrations in triplicate was calculated. […] As an alternate to the end point OD reading, one may use the mean rate of appearance of the reaction product (mean V), calculated from the best linear fit of the data to absorbance vs. time. […]

SMILES: O=C(O)c1cc(O)c2ccccc2n1 [Kynurenic Acid, kynurenic acid]
- MT-MMP activity in combination with benzathine: evince MT-MMP activity
